Experimental data from US20220306695A1, “COMPSTATIN ANALOGUES AND THEIR MEDICAL USES” (priority 2019, published 2022).
Starred links: 1 amine or outer side, 2 acyl side, 3 side chain; linkers in the order of their positions; H or OH if unused. Positions of bridges follow the written chain, without caps; N, C: chain ends. Non-standard residues stand in square brackets, D forms with d. Residues, ends and D or L forms follow the SMILES beside them. Groups on a side chain read outwards from the residue. *: point of attachment. Trp(1-Me) = Cn1cc(C[C@H](N)C(=O)O)c2ccccc21; C18 diacid = O=C(O)CCCCCCCCCCCCCCCCC(=O)*; C16 diacid = O=C(O)CCCCCCCCCCCCCCC(=O)*; γGlu = O=C(O)[C@H](CCC(=O)[*:2])N[*:1]; AEEA = NCCOCCOCC(=O)O; Aoc = NCCCCCCCC(=O)O; Sar = CNCC(=O)O

tested on: classical complement pathway; assay: In vitro haemolysis assay (inhibition of classical complement pathway); assay type: cell-based, human; conditions: Table 3; human serum, sensitized sheep red blood cells; read-out: IC50[nM], in vitro analysis of inhibition of hemolysis
Protocol: Method The in vitro effect of test compounds was assessed by measuring their inhibitory effect of the classical complement pathway in a haemolysis assay. Briefly, test compounds and reference compounds were dissolved in DMSO and diluted in Tris/Casein Assay Buffer (10 mM Tris, 145 mM NaCl, 0.5 mM MgCl2, 0.15 mM CaCl2, and 0.1% W/V Casein, adjusted to pH 7.4) as 9-point serial dilutions in a 96 well plate. Sensitized sheep red blood cells (RBC) coated with rabbit anti-sheep erythrocyte antiserum (Complement Technology, Inc., TX, USA) were washed in Tris/Casein Assay Buffer. 50 μL from each well of diluted compound was added to a 96-well plate containing 50 μL diluted human serum (Complement Technology, Inc., TX, USA) and incubated for 15 minutes at room temperature. The serum dilution factor was optimized for every serum batch to obtain 70-90% of maximal haemolysis using the protocol. Then 50 μL sensitized sheep red blood cells were added to all wells ([…] per well). After 30 minutes of incubation at 37° C. with gentle agitation, the reaction was stopped by addition of 50 μL Tris STOP Buffer per well (10 mM EDTA, 10 mM Tris, 145 mM NaCl adjusted to pH 7.4). The RBCs were then removed by centrifugation and the resulting supernatant measured for hemolysis by absorbance at 405 nm. The response was normalized relative to a positive and negative control (vehicle) to calculate the IC50 from the concentration response curve using the 4-parameter logistic (4PL) nonlinear model for curve fitting.

Compound | IC50 [nM]
CC[C@H](C)[C@H](NC(=O)CNC(=O)[C@H](CCCCN)NC(=O)[C@H](CCC(=O)O)NC(C)=O)C(=O)N[C@H]1CSSC[C@@H](C(=O)N[C@H](C(=O)N[C@@H](CCC(=O)O)C(=O)N[C@@H](CCCCN)C(=O)N2CCC[C@H]2C(N)=O)[C@@H](C)O)NC(=O)[C@H](CCCNC(=N)N)NC(=O)[C@H](Cc2c[nH]cn2)NC(=O)[C@H](CCC(=O)O)NC(=O)CNC(=O)[C@H](Cc2c[nH]c3ccccc23)NC(=O)[C@H](CC(=O)O)NC(=O)[C@H](CCC(N)=O)NC(=O)[C@H](Cc2c[nH]c3ccccc23)NC(=O)[C@H]([C@@H](C)CC)NC1=O [Compound 38] (Ac-EKGICIWQDWGEHRCTEKP-NH2; disulfide 5-15) | < 250
CC[C@H](C)[C@H](NC(C)=O)C(=O)N[C@H]1CSSC[C@@H](C(=O)N[C@H](C(N)=O)[C@@H](C)O)NC(=O)[C@H](CCCNC(=N)N)NC(=O)[C@H](Cc2c[nH]cn2)NC(=O)[C@H](CCC(=O)O)NC(=O)CNC(=O)[C@H](Cc2c[nH]c3ccccc23)NC(=O)[C@H](CCC(=O)O)NC(=O)[C@H](CCC(N)=O)NC(=O)[C@H](Cc2c[nH]c3ccccc23)NC(=O)[C@H]([C@@H](C)CC)NC1=O [Compound 16] (Ac-ICIWQEWGEHRCT-NH2; disulfide 2-12) | < 100
CC[C@H](C)[C@@H]1NC(=O)[C@@H](NC(=O)[C@H](Cc2ccccc2)NC(=O)[C@H](CCC(=O)O)NC(=O)[C@H](CO)NC(C)=O)CSSC[C@@H](C(=O)N[C@H](C(=O)N[C@@H](CCC(=O)O)C(=O)NCC(=O)N[C@@H](CCC(=O)O)C(=O)NCCCCCCCC(=O)N[C@@H](CCC(=O)O)C(=O)N[C@@H](CCCCNC(=O)CC[C@H](NC(=O)CNC(=O)CC[C@H](NC(=O)CCCCCCCCCCCCCCCCC(=O)O)C(=O)O)C(=O)O)C(N)=O)[C@@H](C)O)NC(=O)[C@H](CCCNC(=N)N)NC(=O)[C@H](Cc2c[nH]cn2)NC(=O)[C@H](CCC(=O)O)NC(=O)CNC(=O)[C@H](Cc2c[nH]c3ccccc23)NC(=O)[C@H](CC(=O)O)NC(=O)[C@H](CCC(N)=O)NC(=O)[C@H](Cc2cn(C)c3ccccc23)NC1=O [Compound 137] (Ac-SEFCI[Trp(1-Me)]QDWGEHRCTEGE[Aoc]EK([γGlu-Gly-γGlu-C18 diacid])-NH2; disulfide 4-14) | < 100
CC[C@H](C)[C@@H]1NC(=O)[C@@H](NC(=O)[C@H](Cc2ccccc2)NC(=O)[C@H](CCC(=O)O)NC(=O)[C@H](CO)NC(C)=O)CSSC[C@@H](C(=O)N(C)CC(=O)N[C@@H](CCC(=O)O)C(=O)NCC(=O)N[C@@H](CCC(=O)O)C(=O)NCCOCCOCC(=O)NCCOCCOCC(=O)N[C@@H](CCCCNC(=O)CC[C@H](NC(=O)CNC(=O)CC[C@H](NC(=O)CCCCCCCCCCCCCCC(=O)O)C(=O)O)C(=O)O)C(N)=O)NC(=O)[C@H](CCCNC(=N)N)NC(=O)[C@H](Cc2c[nH]cn2)NC(=O)[C@H](CCC(=O)O)NC(=O)CNC(=O)[C@H](Cc2c[nH]c3ccccc23)NC(=O)[C@H](CC(=O)O)NC(=O)[C@H](CCC(N)=O)NC(=O)[C@H](Cc2cn(C)c3ccccc23)NC1=O [Compound 127] (Ac-SEFCI[Trp(1-Me)]QDWGEHRC[Sar]EGE[AEEA][AEEA]K([γGlu-Gly-γGlu-C16 diacid])-NH2; disulfide 4-14) | < 100
CC[C@H](C)[C@@H]1NC(=O)[C@@H](NC(=O)[C@H](Cc2ccccc2)NC(=O)[C@H](CCC(=O)O)NC(=O)[C@H](CO)NC(C)=O)CSSC[C@@H](C(=O)N[C@H](C(=O)N[C@@H](CCC(=O)O)C(=O)NCC(=O)N[C@@H](CCC(=O)O)C(=O)NCC(=O)NCC(=O)NCC(=O)N[C@@H](CCCCNC(=O)CC[C@H](NC(=O)CNC(=O)CC[C@H](NC(=O)CCCCCCCCCCCCCCCCC(=O)O)C(=O)O)C(=O)O)C(N)=O)[C@@H](C)O)NC(=O)[C@H](CCCNC(=N)N)NC(=O)[C@H](Cc2c[nH]cn2)NC(=O)[C@H](CCC(=O)O)NC(=O)CNC(=O)[C@H](Cc2c[nH]c3ccccc23)NC(=O)[C@H](CC(=O)O)NC(=O)[C@H](CCC(N)=O)NC(=O)[C@H](Cc2cn(C)c3ccccc23)NC1=O [Compound 130] (Ac-SEFCI[Trp(1-Me)]QDWGEHRCTEGEGGGK([γGlu-Gly-γGlu-C18 diacid])-NH2; disulfide 4-14) | < 100
CC[C@H](C)[C@@H]1NC(=O)[C@@H](NC(=O)[C@H](Cc2ccc(O)cc2)NC(=O)[C@H](C)NC(=O)[C@H](CO)NC(=O)CNC(=O)[C@H](CCC(=O)O)NC(C)=O)CSSC[C@@H](C(=O)N[C@H](C(=O)N[C@@H](CCC(=O)O)C(N)=O)[C@@H](C)O)NC(=O)[C@H](CCCNC(=N)N)NC(=O)[C@H](Cc2c[nH]cn2)NC(=O)[C@H](CCC(=O)O)NC(=O)CNC(=O)[C@H](Cc2c[nH]c3ccccc23)NC(=O)[C@H](CC(=O)O)NC(=O)[C@H](CCC(N)=O)NC(=O)[C@H](Cc2cn(C)c3ccccc23)NC1=O [Compound 59] (Ac-EGSAYCI[Trp(1-Me)]QDWGEHRCTE-NH2; disulfide 6-16) | < 100
CC[C@H](C)[C@H](NC(C)=O)C(=O)N[C@H]1CSSC[C@@H](C(=O)N[C@H](C(=O)N[C@@H](CCC(=O)O)C(N)=O)[C@@H](C)O)NC(=O)[C@H](CCCNC(=N)N)NC(=O)[C@H](Cc2c[nH]cn2)NC(=O)[C@H](CCC(=O)O)NC(=O)CNC(=O)[C@H](Cc2c[nH]c3ccccc23)NC(=O)[C@H](CC(=O)O)NC(=O)[C@H](CCC(N)=O)NC(=O)[C@H](Cc2c[nH]c3ccccc23)NC(=O)[C@H]([C@@H](C)CC)NC1=O [Compound 26] (Ac-ICIWQDWGEHRCTE-NH2; disulfide 2-12) | < 100
CC[C@H](C)[C@H](NC(C)=O)C(=O)N[C@H]1CSSC[C@@H](C(=O)N[C@H](C(N)=O)[C@@H](C)O)NC(=O)[C@H](CCCNC(=N)N)NC(=O)[C@H](Cc2c[nH]cn2)NC(=O)[C@H](CCC(=O)O)NC(=O)CNC(=O)[C@H](Cc2c[nH]c3ccccc23)NC(=O)[C@H](CCCCN)NC(=O)[C@H](CCC(N)=O)NC(=O)[C@H](Cc2c[nH]c3ccccc23)NC(=O)[C@H]([C@@H](C)CC)NC1=O [Compound 7] (Ac-ICIWQKWGEHRCT-NH2; disulfide 2-12) | < 1000
CC[C@H](C)[C@H](NC(C)=O)C(=O)N[C@H]1CSSC[C@@H](C(=O)N[C@H](C(=O)NCC(=O)N[C@@H](C)C(=O)N[C@@H](CCC(=O)O)C(=O)N[C@@H](CO)C(N)=O)[C@@H](C)O)NC(=O)[C@H](CCCNC(=N)N)NC(=O)[C@H](Cc2c[nH]cn2)NC(=O)[C@H](C)NC(=O)CNC(=O)[C@H](Cc2c[nH]c3ccccc23)NC(=O)[C@H](CC(=O)O)NC(=O)[C@H](CCC(N)=O)NC(=O)[C@H](Cc2c[nH]c3ccccc23)NC(=O)[C@H]([C@@H](C)CC)NC1=O [Compound 47] (Ac-ICIWQDWGAHRCTGAES-NH2; disulfide 2-12) | < 100
CC[C@H](C)[C@@H]1NC(=O)[C@@H](NC(=O)[C@H](Cc2ccccc2)NC(=O)[C@H](CCC(=O)O)NC(=O)[C@H](CO)NC(C)=O)CSSC[C@@H](C(=O)N[C@H](C(=O)N[C@@H](CCC(=O)O)C(=O)NCC(=O)N[C@@H](CCC(=O)O)C(=O)NCC(=O)NCC(=O)NCC(=O)N[C@@H](CCCCNC(=O)CC[C@H](NC(=O)CNC(=O)CC[C@H](NC(=O)CCCCCCCCCCCCCCC(=O)O)C(=O)O)C(=O)O)C(N)=O)[C@@H](C)O)NC(=O)[C@H](CCCNC(=N)N)NC(=O)[C@H](Cc2c[nH]cn2)NC(=O)[C@H](CCC(=O)O)NC(=O)CNC(=O)[C@H](Cc2c[nH]c3ccccc23)NC(=O)[C@H](CC(=O)O)NC(=O)[C@H](CCC(N)=O)NC(=O)[C@H](Cc2cn(C)c3ccccc23)NC1=O [Compound 131] (Ac-SEFCI[Trp(1-Me)]QDWGEHRCTEGEGGGK([γGlu-Gly-γGlu-C16 diacid])-NH2; disulfide 4-14) | < 100

same assay, conditions: Table 4; valine 3 versus isoleucine 3 pairs; read-out: CP hemolysis IC50

Compound | IC50 [nM]
CC[C@H](C)[C@H](NC(C)=O)C(=O)N[C@H]1CSSC[C@@H](C(=O)N[C@H](C(=O)N[C@@H](CCC(=O)O)C(=O)NCC(=O)N[C@@H](CCC(=O)O)C(N)=O)[C@@H](C)O)NC(=O)[C@H](CCCNC(=N)N)NC(=O)[C@H](Cc2c[nH]cn2)NC(=O)[C@H](CCC(=O)O)NC(=O)CNC(=O)[C@H](Cc2c[nH]c3ccccc23)NC(=O)[C@H](CC(=O)O)NC(=O)[C@H](CCC(N)=O)NC(=O)[C@H](Cc2c[nH]c3ccccc23)NC(=O)[C@H](C(C)C)NC1=O [J, reference compound] (Ac-ICVWQDWGEHRCTEGE-NH2; disulfide 2-12) | 240
CC[C@H](C)[C@H](NC(C)=O)C(=O)N[C@H]1CSSC[C@@H](C(=O)N[C@H](C(N)=O)[C@@H](C)O)NC(=O)[C@H](CCCNC(=N)N)NC(=O)[C@H](Cc2c[nH]cn2)NC(=O)[C@H](CO)NC(=O)CNC(=O)[C@H](Cc2c[nH]c3ccccc23)NC(=O)[C@H](CC(=O)O)NC(=O)[C@H](CCC(N)=O)NC(=O)[C@H](Cc2c[nH]c3ccccc23)NC(=O)[C@H](C(C)C)NC1=O [B, reference compound] (Ac-ICVWQDWGSHRCT-NH2; disulfide 2-12) | 360

same assay, conditions: Table 5; different residues at position 3 of Ac-IC(1)XWQDWGEHRC(1)T-NH2; read-out: IC50, CP hemolysis

Compound | IC50 [nM]
N[C@@H](Cc1ccccc1)C(=O)O [Phenylalanine, reference compound] | > 10000
